Laboratory results reported in patent US20170349532A1, “CATIONIC LIPID” (Kyowa Hakko Kirin Co., Ltd., priority 2011, published 2017).

test: Average particle diameter of preparation (Zetasizer Nano ZS); format: physicochemical; settings: Comparative Examples 1 to 8, prepared as Example 118 with apo-b siRNA
Excerpt: Preparations were produced using the compounds obtained in Examples 1 to 117, as follows.
APO-B siRNA was used as the nucleic acid. APO-B siRNA suppresses expression of an apolipoprotein-B (hereinafter, “apo-b”) gene and has a sense strand with the base sequence 5′-GmUCAmUCACACmUGAAmUACCAAmU-3′ (the sugars attached to the bases appended with m are 2′-O-methyl-substituted riboses), and an antisense strand with the base sequence 5′-[…]-3′ (the 5′-end is phosphorylated). The sense strand and the antisense strand were obtained from Nippon EGT, GeneDesign, Inc., Invitrogen or Hokkaido System Science Co., Ltd., and annealed to prepare the nucleic acid (hereinafter, “apo-b siRNA”).
A solution comprising the constituent components was prepared by dissolving each of the weighed samples in 90 vol % ethanol in 8.947/1.059/5.708/13.697 mmol/L [compounds 1 to 117 obtained in Examples 1 to 117/sodium 1,2-dimyristoyl-sn-glycero-3-phosphoethanolamine-N-(methoxy(polyethylene glycol)-2000) (PEG-DMPE Na,N-(carbonylmethoxypolyethylene glycol 2000)-1,2-dimyristoyl-sn-glycero-3-phosphoethanolamine sodium salt, NOF Corporation)/distearoylphosphatidyl choline (DSPC, 1,2-distearoyl-sn-glycero-3-phosphocholine, NOF Corporation)/cholesterol (Avanti Polar Lipids)]. Separately, apo-b siRNA/distilled water (24 mg/mL) was diluted with a Tris-EDTA buffer (200 mM Tris-HCl, 20 mM EDTA, Invitrogen) and a 20 mM citric acid buffer (pH 5.0) to prepare a 1.5 mg/mL apo-b siRNA aqueous solution (2 mM Tris-EDTA/20 mM citric acid buffer, pH 5.0).
The resulting lipid solution was heated to 37° C., and a 100-μL portion was transferred to a preparation container. The apo-b siRNA aqueous solution (100 μL) was then added thereto while being stirred. Then, a 20 mM citric acid buffer (containing 300 mM NaCl, pH 6.0; 200 μL) was added to the lipid nucleic acid mixed suspension (200 μL) while being stirred. The siRNA concentration was brought to 10 μM by dropping a Dulbecco phosphate buffer (DPBS, Invitrogen; 662 μL), and preparations (compositions comprising compounds 1 to 117 and the nucleic acid) were obtained.
The average particle diameter of the complex between the cationic lipis and the nucleic acid in each preparation was measured with a particle diameter measurement device (Malvern; Zetasizer Nano ZS).

average particle diameter of the complex between the cationic lipis and the nucleic acid in the preparation [nm]	Compound
131.1	CCCCCCCC/C=C\CCCCCCCC(=O)O[C@@H]1CN(C)C[C@H]1OC(=O)CCCCCCC/C=C\CCCCCCCC [Compound A-4, (3R,4R)-1-Methylpyrrolidine-3,4-diyl di((Z)-octadec-9-enoate), reference compound]
157.8	CCCCCCCC/C=C\CCCCCCCCO[C@@H]1CN(Cc2ccccc2)C[C@H]1OCCCCCCCC/C=C\CCCCCCCC [Compound VI-4, (3R,4R)-1-Benzyl-3,4-bis((Z)-octadec-9-enyloxy)pyrrolidine, reference compound]

same assay, conditions: average particle diameter of cationic lipid/nucleic acid complex; Example 118 preparation: compound/PEG-DMPE Na/DSPC/cholesterol with apo-b siRNA

Particle diameter of Preparetion [nm]	Compound
126.5	CCCCCC/C=C\CCCCCCCCOCCN(C)CCOCCCCCCCC/C=C\CCCCCC [Compound 35, N-Methyl-N,N-bis(2-((Z)-hexadec-9-enyloxy)ethyl)amine]
141.8	CCCCC/C=C\C/C=C\CCCCCCCCCCOC[C@@H]1CNC[C@H]1COCCCCCCCCCC/C=C\C/C=C\CCCCC (relative stereo) [Compound 103, trans-3,4-bis(((11Z,14Z)-Icos-11,14-dienyloxy)methyl)pyrrolidine]
129.2	CCCCC/C=C\C/C=C\CCCCCCCCO[C@H]1CN(C)C[C@@H]1OCCCCCCCC/C=C\C/C=C\CCCCC (stereo in doubt) [Compound 50, (3S,4S)-1-Methyl-3,4-bis((9Z,12Z)-octadec-9,12-dienyloxy)pyrrolidine]
153.9	CCCCC/C=C\C/C=C\CCCCCCCCO[C@@H]1CN(C)C[C@H]1OCCCCCCCC/C=C\C/C=C\CCCCC [Compound 10, (3R,4R)-1-Methyl-3,4-bis((9Z,12Z)-octadec-9,12-dienyloxy)pyrrolidine]
125.8	CCCC/C=C\CCCCCCCCO[C@@H]1CN(C)C[C@H]1OCCCCCCCC/C=C\CCCC [Compound 47, (3R,4R)-1-Methyl-3,4-bis((Z)-tetradec-9-enyloxy)pyrrolidine]
133.9	CCCCC/C=C\C/C=C\CCCCCCCC(=O)O[C@@H]1CN(C(=O)CN(C)C)C[C@H]1OC(=O)CCCCCCC/C=C\C/C=C\CCCCC [Compound 26, (3R,4R)-1-(2-(Dimethylamino)acetyl)pyrrolidine-3,4-diyl di((9Z,12Z)-octadec-9,12-dienoate)]
137.4	CCCCC/C=C\C/C=C\CCCCCCCC(=O)O[C@@H]1CN(C(=O)[C@@H](N)CCCCN)C[C@H]1OC(=O)CCCCCCC/C=C\C/C=C\CCCCC [Compound 66, (3R,4R)-1-((S)-2,6-Diaminohexanoyl)pyrrolidine-3,4-diyl di((9Z,12Z)-octadec-9,12-enoate)]
120.8	CCCCCCCC/C=C\CCCCCCCCOCCN(CCOCCCCCCCC/C=C\CCCCCCCC)C(=O)CCN(C)C [Compound 90, 3-(Dimethylamino)-N,N-bis(2-((Z)-octadec-9-enyloxy)ethyl)propanamido]
143.9	CCCCCCCC/C=C\CCCCCCCCOCCN(CCOCCCCCCCC/C=C\CCCCCCCC)C(=O)[C@@H](N)CN [Compound 92, (S)-2,3-Diamino-N,N-bis(2-((Z)-octadec-9-enyloxy)ethyl)propanamido]
152.4	CCCCC/C=C\C/C=C\CCCCCCCC(=O)O[C@@H]1CN(CC(O)CO)C[C@H]1OC(=O)CCCCCCC/C=C\C/C=C\CCCCC (stereo partly drawn) [Compound 53, (3R,4R)-1-(2,3-dihydroxypropyl)pyrrolidine-3,4-diyl di((9Z,12Z)-octadec-9,12-enoate)]
444.5	CCCCCCCCCCCCCCCCCCO[C@@H]1CNC[C@H]1OCCCCCCCCCCCCCCCCCC [Compound 39, (3R,4R)-3,4-bis(Octadecyloxy)pyrrolidine]
160.7	CCCCC/C=C\C/C=C\CCCCCCCCO[C@@H]1CN(CC(O)CO)C[C@H]1OCCCCCCCC/C=C\C/C=C\CCCCC (stereo partly drawn) [Compound 24, 3-((3R,4R)-3,4-bis((9Z,12Z)-Octadec-9,12-dienyloxy)pyrrolidin-1-yl) propane-1,2-diol]
133.8	CCCC/C=C\CCCCCCCCO[C@@H]1CNC[C@H]1OCCCCCCCC/C=C\CCCC [Compound 40, (3R,4R)-3,4-bis((Z)-Tetradec-9-enyloxy)pyrrolidine]
146.4	CCCCCCCC/C=C\CCCCCCCCO[C@@H]1CN(CC)C[C@H]1OCCCCCCCC/C=C\CCCCCCCC [Compound 18, (3R,4R)-1-Ethyl-3,4-bis((Z)-octadec-9-enyloxy)pyrrolidine]
142.6	CCCCC/C=C\C/C=C\CCCCCCCCO[C@@H]1CN(CC)C[C@H]1OCCCCCCCC/C=C\C/C=C\CCCCC [Compound 17, (3R,4R)-1-Ethyl-3,4-bis((9Z,12Z)-octadec-9,12-dienyloxy)pyrrolidine]
135.8	CCCCC/C=C\C/C=C\CCCCCCCCO[C@H]1CN(C)C[C@H]1OCCCCCCCC/C=C\C/C=C\CCCCC [Compound 11, (3R,4S)-1-Methyl-3,4-bis((9Z,12Z)-octadec-9,12-dienyloxy)pyrrolidine]
126.0	CCCCC/C=C\C/C=C\CCCCCCCCO[C@@H]1CN(C(=O)CN(C)C)C[C@H]1OCCCCCCCC/C=C\C/C=C\CCCCC [Compound 25, (3R,4R)-1-(2-(Dimethylamino)acetyl)-3,4-bis((9Z,12Z)-octadec-9,12-dienyloxy)pyrrolidine]
116.5	CCCCC/C=C\C/C=C\CCCCCCCCCCOCCN(C)CCOCCCCCCCCCC/C=C\C/C=C\CCCCC [Compound 79, N,N-bis(2-((11Z,14Z)-Icos-11,14-dienyloxy)ethyl)-N-methylamine]
152.8	CCCCC/C=C\C/C=C\CCCCCCCCCCOC[C@@H]1CN(C(=O)[C@@H](N)CCCCN)C[C@H]1COCCCCCCCCCC/C=C\C/C=C\CCCCC [Compound 115, trans-1-((S)-2,6-Diaminohexanoyl)-3,4-bis(((11Z,14Z)-icos-11,14-dienyloxy)methyl)pyrrolidine]
165.7	CCCCCCCCCCCCCCOCCN(C)CCOCCCCCCCCCCCCCC [Compound 34, N-Methyl-N,N-bis(2-(tetradecyloxy)ethyl)amine]
125.9	CCCCC/C=C\C/C=C\CCCCCCCCO[C@@H]1CN(C(=O)CN)C[C@H]1OCCCCCCCC/C=C\C/C=C\CCCCC [Compound 61, (3R,4R)-1-(2-Aminoacetyl)-3,4-bis((9Z,12Z)-octadec-9,12-dienyloxy)pyrrolidine]
128.9	CCCCC/C=C\C/C=C\CCCCCCCC(=O)O[C@@H]1CN(C(=O)CN)C[C@H]1OC(=O)CCCCCCC/C=C\C/C=C\CCCCC [Compound 65, (3R,4R)-1-(2-aminoacetyl)pyrrolidine-3,4-diyl di((9Z,12Z)-octadec-9,12-enoate)]
154.2	CCCCC/C=C\C/C=C\CCCCCCCCOCCN(C)CCOCCCCCCCC/C=C\C/C=C\CCCCC [Compound 32, N-Methyl-N,N-bis(2-((9Z,12Z)-octadec-9,12-dienyloxy)ethyl)amine]
135.2	CCCCCCCC/C=C\CCCCCCCC(=O)O[C@@H]1CN(C(=O)CN(C)C)C[C@H]1OC(=O)CCCCCCC/C=C\CCCCCCCC [Compound 27, (3R,4R)-1-(2-(Dimethylamino)acetyl)pyrrolidine-3,4-diyl di((Z)-octadec-9-enoate)]
148.7	CCCCCCCC/C=C\CCCCCCCCOC[C@@H]1CNC[C@H]1COCCCCCCCC/C=C\CCCCCCCC (relative stereo) [Compound 101, trans-3,4-bis(((Z)-Octadec-9-enyloxy)methyl)pyrrolidine]
120.2	CCCCCCCC/C=C\CCCCCCCCOCCN(CCOCCCCCCCC/C=C\CCCCCCCC)CCC(N)=O [Compound 84, 3-(bis(2-((2)-Octadec-9-enyloxy)ethyl)amino)propanamide]
148.7	CCCCCCCCCCC/C=C\CCCCCO[C@@H]1CNC[C@H]1OCCCCC/C=C\CCCCCCCCCCC [Compound 7, (3R,4R)-3,4-bis((Z)-Octadec-6-enyloxy)pyrrolidine]
116.7	CCCCC/C=C\C/C=C\CCCCCCCCO[C@@H]1CN(CCCN(C)C)C[C@H]1OCCCCCCCC/C=C\C/C=C\CCCCC [Compound 59, (3R,4R)-1-(3-N,N-Dimethylaminopropyl)-3,4-bis((9Z,12Z)-octadec-9,12-dienyloxy)pyrrolidine]
131.9	CCCCCCCC/C=C\CCCCCCCCOCCN(CCOCCCCCCCC/C=C\CCCCCCCC)C(=O)CCCCCN [Compound 88, 6-Amino-N,N-bis(2-((Z)-octadec-9-enyloxy)ethyl)]
